Laboratory results published in the supplement of paper PMC10307832.

Legend:
Test in all cases: relative viability (nuclei count vs DMSO), 5 days (fraction); higher = more cells survive
CUDC-101 + Trametinib = compound: C#Cc1cccc(Nc2ncnc3cc(OC)c(OCCCCCCC(=O)NO)cc23)c1 [CUDC-101] + CC(=O)Nc1cccc(-n2c(=O)n(C3CC3)c(=O)c3c(Nc4ccc(I)cc4F)n(C)c(=O)c(C)c32)c1 [Trametinib] (partner 0.02 µM)
Outline: (§1)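 Medians of duplicate plates are given as relative viability. That measure is the nuclei count in treated wells divided by the count in vehicle wells. Counts were taken on 4× images of lung cancer cell lines in 1536-well plates, 5 days after pin-tool dosing the day after seeding with one drug alone or a fixed anchor-drug dose plus five library-drug doses (not always all listed) in √10 steps.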

[1] = compound: C1=CC=C2C(=C1)N=C(S2)C(C#N)C3=NC(=NC=C3)NCCC4=CN=CC=C4 + CC(=O)Nc1cccc(-n2c(=O)n(C3CC3)c(=O)c3c(Nc4ccc(I)cc4F)n(C)c(=O)c(C)c32)c1 [Trametinib] (partner 0.02 µM)
Outline: as §1

NVP-TAE684 + Trametinib = compound: COc1cc(N2CCC(N3CCN(C)CC3)CC2)ccc1Nc1ncc(Cl)c(Nc2ccccc2S(=O)(=O)C(C)C)n1 [NVP-TAE684] + CC(=O)Nc1cccc(-n2c(=O)n(C3CC3)c(=O)c3c(Nc4ccc(I)cc4F)n(C)c(=O)c(C)c32)c1 [Trametinib] (partner 0.02 µM)
Outline: as §1

NVP-TAE684 + Vorinostat = compound: COc1cc(N2CCC(N3CCN(C)CC3)CC2)ccc1Nc1ncc(Cl)c(Nc2ccccc2S(=O)(=O)C(C)C)n1 [NVP-TAE684] + O=C(CCCCCCC(=O)Nc1ccccc1)NO [Vorinostat] (partner 1 µM)
Outline: as §1

Cell Line	relative viability (CUDC-101 + Trametinib; first compound 0.01 µM)	relative viability (CUDC-101 + Trametinib; first compound 0.03162 µM)	relative viability (CUDC-101 + Trametinib; first compound 0.1 µM)	relative viability (CUDC-101 + Trametinib; first compound 0.3162 µM)	relative viability (CUDC-101 + Trametinib; first compound 1 µM)	relative viability ([1]; first compound 0.005 µM)	relative viability ([1]; first compound 0.01581 µM)	relative viability ([1]; first compound 0.05 µM)	relative viability ([1]; first compound 0.1581 µM)	relative viability ([1]; first compound 0.5 µM)	relative viability (NVP-TAE684 + Trametinib; first compound 0.2 µM)	relative viability (NVP-TAE684 + Trametinib; first compound 0.6325 µM)	relative viability (NVP-TAE684 + Trametinib; first compound 2 µM)	relative viability (NVP-TAE684 + Vorinostat; first compound 0.2 µM)	relative viability (NVP-TAE684 + Vorinostat; first compound 0.6325 µM)	relative viability (NVP-TAE684 + Vorinostat; first compound 2 µM)
NCI-H522	0.605	0.747	0.893	0.651	0.642	0.98	0.846	0.766	0.755	0.761	0.652	0.776	0.738	0.78	0.855	0.764
RERF-LC-KJ	0.908	0.955	0.865	0.775	0.672	0.916	0.877	0.911	0.961	0.688	0.861	0.772	0.664	0.589	0.644	0.48
A-427	0.763	0.743	0.736	0.733	0.461	0.882	0.714	0.683	0.81	0.804	0.699	0.627	0.462	0.908	0.848	0.738
EKVX	0.353	0.349	0.335	0.407	0.224	0.228	0.328	0.282	0.299	0.294	0.285	0.241	0.334	0.677	0.699	0.373
NCI-H460	0.108	0.224	0.227	0.182	0.0486	–	0.137	0.131	0.175	0.141	0.173	0.16	0.0273	–	0.806	0.106
HARA	0.417	0.487	–	0.356	0.235	0.685	0.475	0.49	1.31	0.576	0.575	0.69	0.155	0.525	0.464	0.23
NCI-H1944	0.375	0.422	0.415	0.388	0.373	0.429	0.463	0.379	0.405	0.398	0.41	0.41	0.364	0.637	0.475	0.486
BEN	1.03	0.889	0.895	0.972	0.706	1.08	1.11	1.15	1.05	1.2	0.983	0.912	–	0.547	0.524	0.419
PC-14	0.928	0.605	0.619	0.233	0.0423	0.411	0.933	0.633	0.948	0.809	0.677	0.62	0.0712	0.44	0.69	0.144
NCI-H322M	0.507	0.477	0.517	0.44	0.411	0.483	0.525	0.489	0.569	0.558	0.589	0.447	0.294	0.858	0.811	0.565
NCI-H1651	0.863	0.786	0.806	0.845	0.8	0.825	0.831	0.827	0.933	0.857	–	0.86	0.771	0.635	0.537	0.508
LCLC-97TM1	0.175	0.193	0.223	0.227	0.164	0.152	0.202	0.172	0.239	0.2	0.202	0.219	0.09	0.548	0.589	0.157
NCI-H727	0.394	0.374	0.418	0.371	0.353	0.39	0.364	0.399	0.381	0.407	0.406	0.349	0.308	1.09	1.25	0.869
NCI-H1666	0.842	0.931	0.818	0.911	0.831	0.923	0.838	0.907	0.836	0.847	0.818	0.836	0.714	0.99	0.964	0.877
IA-LM	–	–	–	–	–	–	–	–	–	–	–	–	–	0.66	0.897	0.7
NCI-H1792	0.607	0.322	0.439	0.453	0.359	–	0.44	0.421	0.387	0.385	0.413	0.388	0.271	–	–	–
HCC-366	0.391	0.378	0.312	0.366	0.209	0.281	0.378	0.314	0.404	0.307	0.352	0.374	0.14	0.365	0.311	0.239
NCI-H1437	0.54	0.528	0.498	0.468	0.263	0.503	0.55	0.52	0.539	0.427	0.523	0.444	0.225	0.832	0.899	0.426
EPLC-272H	0.279	0.258	0.26	0.265	0.229	0.392	0.277	0.301	0.336	0.265	0.296	0.25	0.243	0.644	0.283	0.2
HCC-15	0.396	0.382	0.385	0.399	0.262	0.396	0.418	0.369	0.378	0.356	0.355	0.418	0.186	0.841	0.855	0.521
NCI-H2347	0.285	0.264	0.278	0.294	0.259	0.282	0.268	0.296	0.3	0.267	0.275	0.264	0.355	0.538	0.588	0.44

Cell Line	relative viability (CUDC-101 + Trametinib; first compound 0.01 µM)	relative viability (CUDC-101 + Trametinib; first compound 0.03162 µM)	relative viability (CUDC-101 + Trametinib; first compound 0.1 µM)	relative viability (CUDC-101 + Trametinib; first compound 0.3162 µM)	relative viability (CUDC-101 + Trametinib; first compound 1 µM)	relative viability ([1]; first compound 0.005 µM)	relative viability ([1]; first compound 0.01581 µM)	relative viability ([1]; first compound 0.05 µM)	relative viability ([1]; first compound 0.1581 µM)	relative viability ([1]; first compound 0.5 µM)	relative viability (NVP-TAE684 + Trametinib; first compound 0.2 µM)	relative viability (NVP-TAE684 + Trametinib; first compound 0.6325 µM)	relative viability (NVP-TAE684 + Trametinib; first compound 2 µM)	relative viability (NVP-TAE684 + Vorinostat; first compound 0.2 µM)	relative viability (NVP-TAE684 + Vorinostat; first compound 0.6325 µM)	relative viability (NVP-TAE684 + Vorinostat; first compound 2 µM)
COR-L 105	0.442	0.424	0.41	0.452	0.311	0.379	0.423	0.412	0.474	0.498	0.439	0.42	0.313	–	0.78	0.509
NCI-H1650	0.637	0.477	0.494	0.588	0.372	0.49	0.492	0.604	0.715	0.513	0.522	0.507	0.221	0.573	0.561	0.502
NCI-H838	0.579	0.504	0.544	0.591	0.423	0.576	0.507	0.492	0.561	0.593	0.566	0.407	0.202	0.76	0.692	0.334
NCI-H2009	0.307	0.245	0.274	0.34	0.292	0.26	0.264	0.26	0.314	0.334	0.302	0.234	0.178	0.733	0.554	0.495
SK-MES-1	0.488	0.488	0.493	0.431	0.319	0.576	0.555	0.531	0.604	0.629	0.578	0.492	0.378	0.977	1.09	0.88
H3255	0.596	0.536	–	0.445	0.209	0.533	0.577	0.62	0.697	0.726	0.569	0.611	0.631	0.855	0.757	0.667
HCC-78	0.781	0.711	0.864	0.667	0.545	1.01	0.782	0.924	0.693	0.729	0.603	0.57	0.401	0.316	0.411	0.23
EMC-BAC-2	0.918	0.811	0.864	0.779	0.479	1.03	0.938	0.812	0.963	0.855	0.89	0.822	0.47	0.46	0.338	0.393
NCI-H2170	0.951	0.967	0.883	0.939	0.843	0.623	0.924	0.884	1.04	0.655	0.861	0.947	0.916	0.771	0.763	0.824
NCI-H2228	0.553	0.467	0.486	0.912	0.537	0.357	0.447	0.512	0.526	0.46	0.312	0.249	0.23	0.467	0.325	0.142
HCC-827	0.53	0.257	0.18	0.183	0.147	0.503	0.534	0.497	0.486	0.497	0.478	0.529	0.442	0.754	0.762	0.793
ChaGo-K-1	0.958	0.898	0.909	0.87	0.784	0.683	0.949	0.913	0.957	0.715	0.899	0.843	0.58	0.786	0.691	0.518
LXF-289	0.689	0.671	0.659	0.605	0.539	0.601	0.726	0.716	0.706	0.577	0.608	0.7	0.624	0.671	0.676	0.723
NCI-H2342	0.789	0.947	0.814	0.819	0.777	0.733	0.89	0.867	0.798	0.844	0.77	0.935	0.638	0.848	0.776	0.678
HOP-62	0.362	0.361	0.403	0.441	0.346	0.359	0.394	0.394	0.37	0.366	0.404	0.338	0.377	0.566	0.57	0.553
LCLC-103H	0.666	0.66	0.662	0.707	0.681	0.648	0.735	0.692	0.695	0.659	0.692	0.693	0.603	0.725	0.759	0.653
LOU-NH91	0.804	0.727	0.738	0.831	0.738	0.794	0.806	0.764	0.794	0.779	0.783	0.714	0.626	0.817	0.8	0.628
NCI-H1915	0.308	0.287	0.305	0.314	0.273	–	0.318	0.304	0.329	0.305	0.298	0.304	0.507	0.579	0.547	0.459
NCI-H1395	1.13	1.05	1.01	1.19	0.981	0.983	–	0.949	1.2	0.979	1.09	1.15	0.944	0.71	0.554	0.711
ABC-1	–	–	–	–	–	–	–	–	–	–	–	–	–	–	1.01	0.527
